# Measurements taken from patent publication US20220370513A1, “COMPOSITION, ANTIOXIDANT AGENT, ANTISACCHARIFICATION AGENT, NEURITE OUTGROWTH PROMOTER, AND COGNITIVE FUNCTION IMPROVER” (YAMADA BEE COMPANY, INC., priority 2019, published 2022).
# Assay: ORAC (oxygen radical absorption capacity) test
# Format: biochemical
# Conditions: Trolox equivalent
# Experimental: The antioxidation capacity of the combination of propolis and each sample was verified by an oxygen radical absorption capacity (ORAC) test. The following samples were used.
# Propolis: ethanol extract powder (Brazilian green propolis, containing arginine as an excipient)
# Phosphatidylserine: synthetic product
# Coffee fruit extract: water/ethanol extract powder
# Gotu kola extract: water extract powder (containing less than 10% of maltodextrin as an excipient)
# Each sample was dissolved in a 50% ethanol aqueous solution. […]
# The obtained test solution was diluted with a 75 mM phosphate buffer and put into a 96-well plate, and a fluorescein solution was added thereto. When the 96-well plate was heated to 37° C., AAPH (2,2′-azobis(2-amidinopropane)dihydrochloride) was added, and the fluorescence intensity decay time was measured with a microplate reader every 5 minutes for 1.5 hours. A standard curve was created using Trolox as a standard reagent, and the antioxidation power of each sample was calculated as a Trolox equivalent (μmol TE/g).
# In Table 1, the expected value is a sum of ORAC values of respective components alone in each combination. The rate of increase is a value obtained by multiplying a result obtained by dividing the measured value by the expected value by 100.
substance,measurement,value
Phosphatidylserine,Single raw material ORAC,12 μmol TE/g
